Measurements taken from US20050014806A1, “Substituted isoxazoles and their use as antibiotics” (priority 2001, published 2005).
Values after ≈ are worked out from the molar mass of the structure shown.

Experiments:
HCT-116 = experiment: cells; type: cell-based, human; details: Homo sapiens, HCT-116, read-out: Cell viability percentage at 100 μM HCT-116
Procedure: (§1) Antitumoral activity of the compounds of the present invention was evaluated by determining in vitro cell growth inhibition of 2 human colon adenocarcinome cell lines. The SBR (Sulphorhodamine B) protein dye assay described by the NCI (National Cancer Institute) was used. Results of Table 2 illustrate the antiproliferative activity of some of the compounds of the present invention versus the one obtained with exisulind (sulindac sulfone).

HT-29 = experiment: cells; type: cell-based, human; details: Homo sapiens, HT-29, read-out: Cell viability percentage at 100 μM HT-29
Procedure: as §1

[1] = tested on: Streptococcus faecalis (BCM-010); experiment: MIC by microdilution in microtiter plate, BCM-010; type: cell-based; details: Enterococcus faecalis, incubation 24 h at 35° C.
Procedure: (§2) In order to assess the antimicrobial activity of the compounds of the present invention a method of microdilution in microtiter plate was used. The compounds were diluted in a nutritious medium and, subsequently, distributed by two-fold serial dilutions in 96 well plates. Then, plates were inoculated with a bacterial suspension. After incubation for 24 h at 35° C. the minimum inhibitory concentration (MIC) of the drug in […] was determined as the lowest concentration of compound which inhibits the growth of the bacterium. Results included in Table 1 illustrate the antimicrobial activity of some of the compounds of the present invention in comparison with thus obtained with two compounds (linezolid and eperezolid) of a known antimicrobial activity. The antimicrobial activity of the compound versus Streptococcus faecalis (BCM-010, strain designation as for SALVAT collection) Staphylococcus aureus (BCM-012, strain designation as for SALVAT collection) and Moraxella catarrhalis (BCM-015, strain designation as for SALVAT collection), respectively, is shown in the different columns.

[2] = tested on: Staphylococcus aureus (BCM-012); experiment: MIC by microdilution in microtiter plate, BCM-012; type: cell-based; details: incubation 24 h at 35° C.
Procedure: as §2

[3] = tested on: Moraxella catarrhalis (BCM-015); experiment: MIC by microdilution in microtiter plate, BCM-015; type: cell-based; details: incubation 24 h at 35° C.
Procedure: as §2

| MIC [1] [µg/mL] | MIC [2] [µg/mL] | MIC [3] [µg/mL] | Structure (SMILES) | viability at 100 µM (HCT-116) [%] | viability at 100 µM (HT-29) [%] |
| --- | --- | --- | --- | --- | --- |
| – | – | – | Cc1cn(-c2ccc(-c3cc(CNc4ccon4)on3)cc2F)cn1 [Example 38] | 48.6 | 53.3 |
| – | – | – | N#C/C=C/c1ccn(-c2ccc(-c3cc(CNc4ccon4)on3)cc2F)c1 [Example 36] | 77.1 | 14.3 |
| 4 (≈ 11.3 µM) | 2 (≈ 5.63 µM) | – | OCc1cn(-c2ccc(-c3cc(CNc4ccon4)on3)cc2F)cn1 [Example 4] | 57.1 | 66.1 |
| 1 (≈ 2.66 µM) | 0.5 (≈ 1.33 µM) | 4 (≈ 10.6 µM) | N#C/C=C/c1cn(-c2ccc(-c3cc(CNc4ccon4)on3)cc2F)cn1 [Example 28] | 64.7 | 71.2 |
| – | – | – | Cc1cc(NCc2cc(-c3ccc(-n4ccc(/C=C/C#N)c4)c(F)c3)no2)sn1 [Example 37] | 18.9 | < 5 |
